Results from patent publication US5747239A, “Synthetic peptides specific for the detection of antibodies to HCV, diagnosis of HCV infection and preventions thereof as vaccines” (United Biomedical, Inc., priority 1994, dated 1998).

B1: GYKVLVLNPSVAATLGFGAYMSKAHGIDPNIRTGVRTITTGSPITYSTYGKFLADGGCSGGAYDIIICDECHSTDATSILGIGTVLDQAETAGARLVVLATATPPGSVTVPHPNIEEVAL (peptide)
chain: GYKVLVLNPSVAATLGFGAYMSKAHGIDPNIRTGVRTITTGSPITYSTYGKFLADGGCSGGAYDIIICDECHSTDATSILGIGTVLDQAETAGARLVVLATATPPGSVTVPHPNIEEVAL
B2: TMRSPVFTDNSSPPVVPQSFQVAHLHAPTGSGKSTKVPAAYAAQGYKVLVLNPSVAATLGFGAYMSKAHGIDPNIRTGVRTITTGSPITYSTYGKFLADGGCSGGAYDIIICDECHS (peptide)
chain: TMRSPVFTDNSSPPVVPQSFQVAHLHAPTGSGKSTKVPAAYAAQGYKVLVLNPSVAATLGFGAYMSKAHGIDPNIRTGVRTITTGSPITYSTYGKFLADGGCSGGAYDIIICDECHS
B3: GYKVLVLNPSVAATLGFGAYMSKAHGIDPNIRTGVRTITTGSPITYSTYGKFLADGGCSGGAYDIIICDECHSTDAT (peptide)
chain: GYKVLVLNPSVAATLGFGAYMSKAHGIDPNIRTGVRTITTGSPITYSTYGKFLADGGCSGGAYDIIICDECHSTDAT
B4: HLHAPTGSGKSTKVPAAYAAQGYKVLVLNPSVAATLGFGAYMSKAHGIDPNIRTGVRTITTGSPITYSTYGKFLADGGCSGGAYDIIICDECHS (peptide)
chain: HLHAPTGSGKSTKVPAAYAAQGYKVLVLNPSVAATLGFGAYMSKAHGIDPNIRTGVRTITTGSPITYSTYGKFLADGGCSGGAYDIIICDECHS
B5: SVAATLGFGAYMSKAHGIDPNIRTGVRTITTGSPITYSTYGKFLADGGCSGGAYDIIICDECHSTDAT (peptide)
chain: SVAATLGFGAYMSKAHGIDPNIRTGVRTITTGSPITYSTYGKFLADGGCSGGAYDIIICDECHSTDAT
B6: AHGIDPNIRTGVRTITTGSPITYSTYGKFLADGGCSGGAYDIIICDECHSTDATSILGIGTVLDQAETAGARLVVLATATPPGSVTVPHPNIEEVAL (peptide)
chain: AHGIDPNIRTGVRTITTGSPITYSTYGKFLADGGCSGGAYDIIICDECHSTDATSILGIGTVLDQAETAGARLVVLATATPPGSVTVPHPNIEEVAL

Legend:
Assay type in all cases: binding, human
[1] = test system: antibodies to HCV; experiment: Peptide ELISA for relative immunoreactivity, 8 member HCV serum panel (Panel I); conditions: NS-3 peptides (Tables 4B-4D), relative to pep3 (279A)
[2] = test system: antibodies to HCV; experiment: as above
Method: As an example to illustrate how relative (%) immunoreactivity for HCV synthetic peptides is measured, wells of 96-well plates are coated for 1 hour at 37° C., with each of the following peptides: IIH, V, VIIIE and pep11 at 5 ug/mL at 100 uL per well in 10 mM NaHCO3 buffer, pH 9.5. The peptide coated wells were then incubated with 250 uL of 3% by weight of gelatin in PBS in 37° C. for 1 hour to block non-specificprotein binding sites, followed by three washes with PBS containing 0.05% by volume of TWEEN 20 and then dried. The test specimens containing a panel of eight well-characterized HCV antibody positive patient sera were diluted with PBS containing 20% by volume normal goat serum, 1% by weight gelatin and 0.05% by volume TWEEN 20 at dilutions of 1:20 volume to volume, respectively. 200 uL of the diluted specimens were added to each of the wells and allowed to react for 15 minutes at 37° C.
The wells were then washed six times with 0.05% by volume TWEEN 20 in PBS in order to remove unbound antibodies. Horseradish peroxidase conjugated goat anti-human IgG was used as a second antibody tracer to bind with the HCV antibody-peptide antigen complex formed in positive wells. 100 uL of peroxidase labeled goat anti-human IgG at a dilution of 1:1800 in 1% by volume normal goat serum, 0.05% by volume TWEEN 20 in PBS was added to each well and incubated at 37° C. for another 15 minutes.
The wells were washed six times with 0.05% by volume TWEEN 20 PBS to remove unbound antibody and reacted with 100 uL of the substrate mixture containing 0.04% by weight orthophenylenediamine (OPD) and 0.12% by volume hydrogen peroxide in sodium citrate buffer, pH 5.0.
This substrate mixture was used to detect the peroxidase label by forming a colored product. Reactions were stopped by the addition of 100 uL of 1.0M H2 SO4 and the A492 mm measured. Results of relative immunoreactivity for each of the peptides obtained from this study are shown in Table A using peptide II H as the reference.

[3] = test system: antibodies to HCV; experiment: NS-1 peptide ELISA, early and late HCV infection panels
Method: In addition, all sixteen NS-1 peptides were tested on panels of samples representing HCV-antibody positive donors (n=9) in an early stage of infection, namely plasmapheresis donors with the first occurrence of an ALT level >100 i.u./L, and those asymptomatic individuals (n=14) disqualified from blood donation because of a reactive result for anti-HIV or HBc, for whom the anti-HCV result probably represents a past infection.
These select panels were chosen from hundreds of HCV positive sera for their ability to recognize NS-1 antigens. For both groups, peptide designated as 232A (pep2) had the greatest immunoreactivity. Using pep2 as a standard, the relative immunoreactivity of each peptide was calculated (Table 3C).

[4] = test system: antibodies to HCV; experiment: NS-1 peptide ELISA, Panel II (asymptomatic individuals, mainland China and Taiwan); conditions: for % IP: NS-1 peptides, Panel II (CH1-CH7), relative to pep1 (231C)
Method: Wells of 96-well plates were coated for 1 hour at 37° C. with each of the 16 peptides (designated as peptides 241A-C, 231A-E, 232A-D, 233C, 234A-C), synthesized according to sequences derived from the NS-1 region (Table 3A), at 5 ug/mL at 100 uL per well in 10 mM NaHCO3 buffer, pH 9.5. Each peptide's immunoreactivity was measured as previously described (see Example 1), using an 8 member serum panel (Panel I).
A panel of serum samples from individuals coming from regions in which hepatitis C is endemic, namely mainland China and Taiwan, were tested for evidence of reactivity to these NS-1 protein derived peptides. Twenty-four samples were chosen from individuals who had no recognizable symptoms of non-A, non-B hepatitis and for whom the peptide based HCV EIA, Format C, as described in Example 11, was nonreactive. Seven of the 24 samples (29%) were reactive against one or more peptides from the NS-1 region, indicative of the presence of long term protective antibodies responsive to this region. This 7 member panel (designated as Panel II, CH1-CH7) was used to further characterize these NS-1 peptides for their immunoreactivity.
The peptide with the greatest reactivity against the serum Panel II again was pep1 (designated 231c in Table 3A). Using this peptide as a standard, the relative immunoreactivity for each of the other 15 peptides from the NS-1 region are calculated in Table 3A.

[5] = Early HCV Infection panel, n = 9
[6] = Late HCV Infection panel, n = 14

Row | Molecule | % Relative Immunoreactivity [1] [%] | % Relative Immunoreactivity in comparison to Pep2 (232A) [3, 5] [%] | % Relative Immunoreactivity in comparison to Pep2 (232A) [3, 6] [%] | % IP [4] [%] | other results
1 | TTGSPITYSTYGKFLADGGCSGGAYDIIICDECHSTDAT [262B] | 4.7 |  |  |  | 
2 | DRSGAPTYSWGENDTDVFVLNNTRPPLGNWFGCTWMNSTGFTKVCGAPPC [232D] |  | 50.0 | 46.7 | 25.9 | Absorbance ([2]; Panel I sample 4): 785 mA; result with the remaining 7 panel members ([2]; Panel I without sample 4): negative
3 | PNIRTGVRTITTGSPITYSTYGKFLADGGCSGGAYDIIICDECHSTDAT [262D] | 9.3 |  |  |  | 
4 | EVALSTTGEIPFYGKAIPLEVIKGGRHLIFCHSKKKCDEL [261B] | 3.1 |  |  |  | 
5 | ANGSGPDQRPYCWHYPPKPCGIVPAKSVCGPVYC [231B] |  | 30.9 | 46.7 | 96.4 | 
6 | CPERLASCRPLTDFDQGWGPISYANGSGPDQRPYCWHYPPKPCGIVPAKSVC [241C] |  | 44.7 | 84.7 | 93.6 | 
7 | QGWGPISYANGSGPDQRPYCWHYPPKPCGIVPAKSVCGPVYC [231C] |  | 88.6 | 62.7 | 100.0 | immunopotency index ([2]; Panel I, compared with peptide VIIIE): 13.9%; A492 nm by EIA (mA) ([4]; Panel II sample CH-1): 2237 mA; A492 nm by EIA (mA) ([4]; Panel II sample CH-2): 2472 mA; A492 nm by EIA (mA) ([4]; Panel II sample CH-3): 171 mA; A492 nm by EIA (mA) ([4]; Panel II sample CH-4): 218 mA; A492 nm by EIA (mA) ([4]; Panel II sample CH-5): 311 mA; A492 nm by EIA (mA) ([4]; Panel II sample CH-6): 247 mA; A492 nm by EIA (mA) ([4]; Panel II sample CH-7): 206 mA
8 | CRPLTDFDQGWGPISYANGSGPDQRPYCWHYPPKPCGIVPAKSVC [241B] |  | 32.7 | 75.0 | 92.9 | 
9 | FLADGGCSGGAYDIIICDECHSTDATSILGIGTVLDQAETAG [279B] | 3 |  |  |  | 
10 | VFVLNNTRPPLGNWFGCTWMNSTGFTKVCGAPPC [232B] |  | 91.4 | 83.5 | 82.9 | 
11 | CPERLASCRPLTDFDQGWGPISYANGSGPDQRPYCWHYPPKPCGIVPAKSVCGPVYC [231E] |  | 70.9 | 83.4 | 87.6 | 
12 | RTITTGSPITYSTYGKFLADGGCSGGAYDIIICDECHS [275A] | 18.2 |  |  |  | 
13 | SWGENDTDVFVLNNTRPPLGNWFGCTWMNSTGFTKVCGAPPC [232C] |  | 21.7 | 22.0 | 27.9 | 
14 | VGGVEHRLEAACNWTRGERCDLEDRDRSELS [234B] |  | 13.2 | 20.9 | 17.9 | 
15 | RTITTGSPITYSTYGKFLADGGCSGGAYDIIICDECHSTDATSILGIGTVLDQAETAG [279E] | 2.2 |  |  |  | 
16 | GCSGGAYDIIICDECHSTDATSILGIGTVLDQAETAG [279A] | 100.0 |  |  |  | 
17 | YGKFLADGGCSGGAYDIIICDECHSTDAT [262A] | 6.9 |  |  |  | 
18 | QGWGPISYANGSGPDQRPYCWHYPPKPCGIVPAKSVC [241A] |  | 23.9 | 43.8 | 63.9 | 
19 | EAACNWTRGERCDLEDRDRSELS [234A] |  | 9.5 | 15.7 | 20.5 | A492 nm by EIA (mA) ([4]; Panel II sample CH-1): 118 mA; A492 nm by EIA (mA) ([4]; Panel II sample CH-2): 232 mA; A492 nm by EIA (mA) ([4]; Panel II sample CH-3): 64 mA; A492 nm by EIA (mA) ([4]; Panel II sample CH-4): 227 mA; A492 nm by EIA (mA) ([4]; Panel II sample CH-5): 206 mA; A492 nm by EIA (mA) ([4]; Panel II sample CH-6): 202 mA; A492 nm by EIA (mA) ([4]; Panel II sample CH-7): 151 mA
20 | AYMSKAHGIDPNIRTGVRTITTGSPITYSTYGKFLADGGCSGGAYDIIICDECHSTDAT [262E] | 3.6 |  |  |  | 
21 | RPYCWHYPPKPCGIVPAKSVCGPVYC [231A] |  | 46.8 | 48.4 | 83.2 | 
22 | TVLDQAETAGARLVVLATATPPGSVTVPHPNIEEVAL [274A] | 2.0 |  |  |  | 
23 | LHCPTDCFRKHPDATYSRCGSGPWITPRCLVDYPYRLWHWPC [233C] |  | 9.9 | 17.5 | 16.8 | A492 nm by EIA (mA) ([4]; Panel II sample CH-1): 123 mA; A492 nm by EIA (mA) ([4]; Panel II sample CH-2): 174 mA; A492 nm by EIA (mA) ([4]; Panel II sample CH-3): 72 mA; A492 nm by EIA (mA) ([4]; Panel II sample CH-4): 238 mA; A492 nm by EIA (mA) ([4]; Panel II sample CH-5): 114 mA; A492 nm by EIA (mA) ([4]; Panel II sample CH-6): 175 mA; A492 nm by EIA (mA) ([4]; Panel II sample CH-7): 89 mA
24 | B1 | 2.8 |  |  |  | 
25 | B2 | 5.4 |  |  |  | 
26 | B3 | 5.1 |  |  |  | 
27 | B4 | 9.6 |  |  |  | 
28 | B5 | 4.7 |  |  |  | 
29 | B6 | 3.9 |  |  |  | 
